Values quoted from earlier work as cited in US20020004584A1, “HIV immune adjuvant therapy” (priority 2000, published 2002).
Blank lines part the entries; values can stand above or below the molecule they belong to.

Assays:
[1] = in vivo
HIV-1 = conditions: preclinical studies
[2] = in vivo; remark: listed apart in the source

SMILES: CC(C)c1nc(CN(C)C(=O)N[C@H](C(=O)N[C@@H](Cc2ccccc2)C[C@H](O)[C@H](Cc2ccccc2)NC(=O)OCc2cncs2)C(C)C)cs1 [Ritonavir, ritonavir]
adverse effects [1]: troublesome adverse effects

SMILES: NC(=O)NO [Hydroxyurea]
effect on the activity of didanosine (HIV-1): synergistic effect

bioavailability [2]: poor bioavailability
SMILES: CC(C)(C)NC(=O)[C@@H]1C[C@@H]2CCCC[C@@H]2CN1C[C@@H](O)[C@H](Cc1ccccc1)NC(=O)[C@H](CC(N)=O)NC(=O)c1ccc2ccccc2n1 [saquinavir]
